Results from PubChem BioAssay (NCI).
Values joined by “and” are separate entries in the source; they are usually repeats but may differ in a detail not shown here. Identical values can stand only once.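 All cell lines were grown in 96-well plates and treated with compound for 48 hours. GI50: concentration for 50% inhibition of growth. TGI denotes the concentration required for complete inhibition of growth.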

Legend:
Test in all cases: NCI tumour cell line growth inhibition, 48 h
HL-60(TB) leukemia = system: HL-60(TB) leukemia
IGROV1 ovarian = system: IGROV1 ovarian
LOX IMVI melanoma = system: LOX IMVI melanoma
MDA-MB-231 breast = system: MDA-MB-231 breast
MOLT-4 leukemia = system: MOLT-4 leukemia
NCI/ADR-RES ovarian = system: NCI/ADR-RES ovarian
SR leukemia = system: SR leukemia
T-47D breast = system: T-47D breast
U251 CNS = system: U251 CNS
SNB-75 CNS = system: SNB-75 CNS

SMILES	GI50 (HL-60(TB) leukemia) [µM]	TGI (HL-60(TB) leukemia)	GI50 (IGROV1 ovarian) [µM]	TGI (IGROV1 ovarian)	GI50 (LOX IMVI melanoma) [µM]	TGI (LOX IMVI melanoma)	GI50 (MDA-MB-231 breast) [µM]	TGI (MDA-MB-231 breast) [µM]	GI50 (MOLT-4 leukemia)	TGI (MOLT-4 leukemia) [µM]	GI50 (NCI/ADR-RES ovarian) [µM]	TGI (NCI/ADR-RES ovarian) [µM]	GI50 (SR leukemia) [µM]	TGI (SR leukemia)	GI50 (T-47D breast) [µM]	TGI (T-47D breast) [µM]	GI50 (U251 CNS) [µM]	TGI (U251 CNS) [µM]	GI50 (SNB-75 CNS) [µM]	TGI (SNB-75 CNS)
N#CC1=C(N)N=C(N2CCOCC2)C(C#N)C12Nc1ccccc1S2 (centres undefined)	51	> 100 µM	67.3	> 100 µM	16.5	41.1 µM	26.7	> 100	23.4 µM	> 100	39.3	75.9	9.31	> 100 µM	27.3	88.2	27.8	> 100		
COc1ccc(C2=C(c3ccccc3)C(=O)N3CCCC3C2)cc1 (centres undefined)	0.493	> 63.6 µM	8.51	> 100 µM	0.115	> 100 µM	> 36.1	> 100		> 100	8.85	> 100			> 52.4	> 100	0.336	> 100	18.9	> 100 µM
Cc1[nH]c(=O)n2c(C)nnc2c1C(=O)O		> 100 µM		> 100 µM		> 100 µM				> 100				> 100 µM				> 100		
CC(C)[C@@]12C[C@@H](OC(=O)COC(=O)c3ccccc3)[C@@](C)(O1)[C@@H]1CC[C@@H](C)[C@H]1[C@@H]2OC(=O)/C=C/c1ccccc1	> 75.1	> 100 µM	> 100	> 100 µM	> 63.4	> 100 µM	> 100	> 100	> 100 µM	> 100	0.47	> 100			> 34.6	> 100	> 100	> 100	> 100	> 100 µM
CCCCCc1cc(/C=C2/N=C(c3ccc[nH]3)C=C2OC)[nH]c1C				0.195 µM				0.0999		0.134		1.14				0.421		0.153		< 0.0124 µM
CC1=C2CC[C@@]3(C)C(=CCC3O)C2(C)CCC1=O (some centres undefined)		> 100 µM		> 100 µM		> 100 µM				> 100				> 100 µM				> 100		> 100 µM
c1cc2c(cc1C1OCC3C(c4ccc5c(c4)OCO5)OCC13)OCO2 (centres undefined)				> 100 µM		> 100 µM				> 100								> 100		> 100 µM
CC(C)n1cc(-c2ccc3c(c2)N(C)CC3)c2c(NS(=O)(=O)c3ccn(C)n3)ccnc21	59.2	> 100 µM	59.1	> 100 µM	47.8	> 100 µM	76.1	> 100	65.7 µM	> 100	49.5	> 100			29.7	> 100	61.9	> 100	39.9	> 100 µM
CC[O-].CC[O-].O=C1C=C([O-])C(=O)c2ccccc21.O=C1C=C([O-])C(=O)c2ccccc21.[Ti+4]	7.22	> 100 µM	> 100	> 100 µM	5.25	> 100 µM			> 100 µM	> 100							> 100	> 100	4.99	> 90.1 µM
O=C(Cc1cc(O)ccc1O)NO			> 100	> 100 µM	28.5	80.9 µM	19.9	47	19.7 µM	41	> 100	> 100	20.5	52.6 µM			32.7	> 100		
NC(=O)c1c[nH]c2ncnc(N)c12	32.3	> 100 µM	36.6	> 100 µM	48.6	> 100 µM	91.5	> 100	32.9 µM	> 100	> 100	> 100			35.3	> 100	> 100	> 100	13.3	59.3 µM
c1ccc2cc(C3NCCc4[nH]cnc43)ccc2c1 (centres undefined)				> 100 µM		> 100 µM				57.9				> 100 µM				> 100		> 100 µM
CC(C)C[C@H](NC(=O)[C@@H](Cc1ccccc1)n1ccc(Nc2ccccc2)cc1=O)B(O)O			1.33	27.9 µM	0.151	0.409 µM	0.595	4.37	0.247 µM	> 100	13.4	> 100	0.0955	2.02 µM	0.413	3.97	0.417	12.2	0.3	1.83 µM
O=C1CCc2cc(Br)ccc2O1		> 100 µM		> 100 µM		> 100 µM				> 100				> 100 µM		> 100		> 100		92.8 µM
COc1ccc(-c2cc(=O)c3c(OC)c4ccoc4c(/C=C/C=O)c3o2)cc1	2.72	8.33 µM	13.6	> 100 µM	1.08	2.34 µM	4.22	85.3	1.84 µM	5.97	2.84	48			2.03	> 100	2.53	10.3	3.13	20.6 µM
CC(=O)OC(C(=O)[O][Ge]([CH3])([CH3])[CH3])c1ccccc1 (centres undefined)		> 100 µM	> 100	> 100 µM	> 100	> 100 µM											> 100	> 100	> 100	> 100 µM
CCOC(=O)CCc1c(C)c2c(OC)cc(OC)cc2oc1=O		> 100 µM				> 100 µM												> 100		> 100 µM
C/C=C1\Oc2ccc(OC)cc2S1(=O)=O		> 100 µM		> 100 µM		> 100 µM				> 100				> 100 µM				> 100		> 100 µM
CCCCCOC(=O)Nc1nc(=O)n(C2OC(C)C(O)C2O)cc1F (centres undefined)	5070	> 10000 µM		> 10000 µM					> 10000 µM	> 10000	> 10000	> 10000			> 10000	> 10000	> 10000	> 10000		

SMILES	GI50 (HL-60(TB) leukemia) [µM]	TGI (HL-60(TB) leukemia)	GI50 (IGROV1 ovarian) [µM]	TGI (IGROV1 ovarian)	GI50 (LOX IMVI melanoma) [µM]	TGI (LOX IMVI melanoma)	GI50 (MDA-MB-231 breast) [µM]	TGI (MDA-MB-231 breast) [µM]	GI50 (MOLT-4 leukemia)	TGI (MOLT-4 leukemia) [µM]	GI50 (NCI/ADR-RES ovarian) [µM]	TGI (NCI/ADR-RES ovarian) [µM]	GI50 (SR leukemia) [µM]	TGI (SR leukemia)	GI50 (T-47D breast) [µM]	TGI (T-47D breast) [µM]	GI50 (U251 CNS) [µM]	TGI (U251 CNS) [µM]	GI50 (SNB-75 CNS) [µM]	TGI (SNB-75 CNS)
Cc1ccc2ncnc(N(C)C3CCCCC3)c2c1			34.1	> 100 µM	21.7	68.3 µM			14.4 µM	63.6	19.1	53	17.4	44.9 µM	76.9	> 100	59.7	> 100		
COC(=O)C1C(C(=O)O)C2(c3ccccc3)C(=O)C1(c1ccccc1)C(c1ccc(OC)cc1)=C2c1ccc(OC)cc1 (centres undefined)			19.9	45.8 µM	33.2	> 100 µM	24	54.5	18 µM	43.4	20.6	43.6	27.2	63 µM			36.6	> 100		
CCCCCCCCCCCCC(O)C1CCC(C(O)CCCCC(O)CCCCCC2CC(CC(C)=O)C(=O)O2)O1 (centres undefined)	1.29	4.02 µM and 2.75 µM	1.49	3.1 µM and 26.6 µM	1.06	2.24 µM and 9.49 µM		7.38	1.94 µM and 2.05 µM	35		2.3	2.8	6.93 µM and 25.5 µM				18.2	1.25	5.42 µM and 16.4 µM
CC(=O)OC(COc1ccc2c(c1)[n+]([O-])nc(N)[n+]2[O-])CN1CCCCC1 (centres undefined)		26.9 µM						28		14.8		> 100		70.1 µM				43		46.7 µM
CO/N=C(/C)COc1ccc2c(c1)oc(=O)c1cc(OC)ccc12			> 100	> 100 µM	> 100	> 100 µM	34.1	> 100	> 100 µM	> 100	> 100	> 100			> 100	> 100	> 100	> 100	57.4	> 100 µM
COc1ccc(OC(=O)N2C/C(=C\c3ccccc3)C(=O)/C(=C/c3ccccc3)C2)cc1		14 µM		16.3 µM		3.22 µM		7.83		8.06				2.64 µM		48.1		8.87		32.6 µM
O=C(c1ccccc1)n1cc(/C=C/[N+](=O)[O-])c2ccccc21		13.3 µM		54.7 µM		29.8 µM				40.3				44.9 µM				33.3		82.1 µM
O=c1cccccc1[O-].O=c1cccccc1[O-].O=c1cccccc1[O-].[Nd+3]		> 100 µM		> 100 µM		> 100 µM				> 100							38.7	> 100		
C[n+]1cccc(NC(=O)c2ccc3ccc4ccc(C(=O)Nc5ccc[n+](C)c5)nc4c3n2)c1	3.54	> 100 µM	1.51	> 100 µM	5.6	> 100 µM	2.41	> 52.4	21.3 µM	> 100	> 100	> 100			0.52	> 100	2.23	> 100	1.15	9.9 µM
COC(=O)c1cc(O)ccc1O		> 100 µM		> 100 µM		> 100 µM				> 100								> 100		> 100 µM
COC(=O)C1c2cc3c(c(O)c2CCC1(C)O)C(=O)c1c(O)cc2c(c1C3=O)OC1OC2(C)C(O)C(N(C)C)C1O (centres undefined)		2.8 µM		2.35 µM		1.4 µM		1.69		0.357		3.54				1.61		1.71		1.37 µM
CCN1C(=O)/C(=c2\sc3n(c2=O)C2C(NN=3)N(CC)C(=O)N2CC)c2ccccc21 (centres undefined)	0.303	1.01 µM	0.574	> 65.5 µM	0.666	26.6 µM	1.44	19.3	0.82 µM	> 100	0.411	13.8	0.357	> 100 µM			0.577	30.1	0.189	0.856 µM
O=C(CCN1CCCCC1)c1csc2ccccc12				> 100 µM		> 100 µM		> 100		> 100		> 100		> 100 µM		> 100		> 100		> 100 µM
OC1CC(O)O[C@H](c2ccccc2)C1 (some centres undefined)		> 100 µM		> 100 µM		> 100 µM				> 100				> 100 µM						> 100 µM
CCOC(=O)C1=C(C)NC2SC(=O)/C(=C\c3cccc(Cl)c3)N2C1c1ccccc1 (centres undefined)	> 100	> 100 µM	> 100	> 100 µM	> 100	> 100 µM	> 100	> 100			> 100	> 100			> 100	> 100	> 100	> 100	> 100	> 100 µM
Cc1ccccc1N(CCC#N)C1=NN(C(=O)CC(=O)Nc2ccc(Cl)cc2)C(c2ccccc2)C1 (centres undefined)		> 100 µM		> 100 µM						> 100				> 100 µM				> 100		> 100 µM
CCCCCCCCCN=C(N)c1ccc(N2CCN(c3ccc(C(N)=NCCCCCCCCC)cc3)CC2)cc1			1.66	> 50 µM	2.1	10.7 µM	1.41	5.59	1.58 µM	> 50	3.56	> 50	2.75	> 50 µM	2.44	11.8	0.518	1.41	1.1	4.75 µM
CC1(C)CC[C@]23CC[C@]4(C)[C@H](CC[C@@H]5[C@@]6(C)CCCNC(C)(C)[C@@H]6CC[C@]54C)[C@H]2[C@H]1OC3			1.79	3.48 µM			1.66	3.2	2.1 µM	5.04			1.49	4.12 µM	1.71	3.69	1.74	3.23	1.5	2.94 µM
